Data published in US10508111B2, “6-[5-amino-6-(2-ethoxyethoxy)-imidazo[4,5-B]pyridin-3-yl]-nicotinonitrile derivatives and their use as IRAK inhibitors” (GALAPAGOS NV, priority 2015, dated 2019).

How the values were obtained:
Format in all cases: cell-based, human
[1] = system: TNFα triggered IL-6 release in SW1353 cells; test: SW1353 cellular selectivity assay, TNFα trigger, IL-6 ELISA readout; details: TNFα trigger 10 ng/mL; for IC50: Homo sapiens; for TNFα trigger IL-6 PIN at 20 μM: percent inhibition at 20 μM compound
Text: (§1) The aim of this assay is to evaluate the selectivity of compounds of the invention for the activated TLR/IRAK-4 pathway in an in vitro human cellular assay setting. SW1353 cells are from a chondrocytic cell line and are responsive to both the interleukin 1 (IL-1) and the TNFα cytokine triggers. Both cytokine triggers induce the expression of interleukin 6 (IL-6) and MMP13 by these cells. IL-6 and MMP13 releases are used as readouts in this assay and represent a measure for the level of inhibition of the TLR/IRAK-4 pathway by the tested compound.
(§2) SW1353 cells are cultured in DMEM supplemented with 10% FBS and 1% Penicillin/Streptomycin. Cells are incubated at 37° C. in a humidified atmosphere of 5% CO2 and subcultured twice a week. During subculturing, trypsin-EDTA is used to detach the cells, followed by a neutralization step with cell culture medium. After centrifugation (1,000 rpm during 5 min), the pellet is resuspended in cell culture medium and cells are counted using an automated cell counter (Invitrogen Countess™).
(§3) Cells are used at passage 16 and plated at a density of 15,000 cells per well in 120 μL cell culture medium in 96-well culture plates. Cells are allowed to attach during overnight incubation.
(§4) SW1353 cells are pre-incubated with test compound by addition of 15 μL of 10× concentrated compound solution for 2 h at 37° C. and 5% CO2. The compounds are tested at different concentrations and prepared by 3-fold serial dilutions from the 10 mM stock solution in DMSO followed by a 1/50 dilution step in cell culture medium. Final test concentrations in the assay start from 20 μM, with subsequent 3-fold serial dilutions with equal final DMSO concentrations of 0.2%. After the compound pre-incubation step, the SW1353 cells are triggered by addition of 15 μL of 10× concentrated IL-1f (Peprotech, 200-01B) or TNFα trigger (Peprotech, 300-01A) to the wells with final assay volume of 150 μL per well and final trigger concentration of 1 ng/mL and 10 ng/mL, respectively. Negative controls are adjusted with equal DMSO concentrations without trigger. The assay plates are then incubated in a humidified incubator at 37° C. and 5% CO2. Cell supernatants are harvested 24 h and 48 h later by transferring the cell medium into a V-bottom polypropylene 96-well plate and stored at −80° C. until ELISA readout.
(§5) The levels of secreted IL-6 in the cell supernatants are quantified in an enzyme-linked immunosorbent assay (ELISA). […] Luminescence of the converted substrate is measured with a Luminoskan™ Ascent luminometer.
(§6) All controls are measured within the linear range of the human IL-6 and MMP13 standard curve of the ELISA. […]

[2] = system: IL-1β triggered IL-6 release in SW1353 cells; test: SW1353 cellular selectivity assay, IL-1β trigger, IL-6 ELISA readout; details: IL-1β trigger 1 ng/mL; for IC50: Homo sapiens; for IL-1β trigger IL-6 PIN at 20 μM: percent inhibition at 20 μM compound
Text: as §1, §2, §3, §4, §5, §6

[3] = system: TNFα triggered MMP13 release in SW1353 cells; test: SW1353 cellular selectivity assay, TNFα trigger, MMP13 readout; details: TNFα trigger 10 ng/mL; for IC50: Homo sapiens; for TNFα trigger MMP13 PIN at 20 μM: percent inhibition at 20 μM compound
Text: as §1, §2, §3, §4
The levels of secreted MMP13 in the cell supernatants are quantified in an antibody capture activity assay. […] After incubation for 1 h at 37° C., fluorescence of the converted substrate is measured with a PerkinElmer EnVision® (excitation wavelength: 320 nm, emission wavelength: 405 nm).
as §6

SMILES | IC50 [1] [µM] | TNFα trigger IL-6 PIN at 20 μM [1] | IC50 [2] [µM] | IL-1β trigger IL-6 PIN at 20 μM [2] | IC50 [3] [µM] | TNFα trigger MMP13 PIN at 20 μM [3]
N#Cc1ccc(-n2cnc3cc(OCCOCCO)c(NC4CCOCC4)nc32)nc1 [Compound 1, 6-[6-[2-(2-hydroxy-ethoxy)-ethoxy]-5-(tetrahydro-pyran-4-ylamino)-imidazo[4,5-b]pyridin-3-yl]-nicotinonitrile] | > 20 | [54%] | 0.054 | [89%] | > 20 | [26%]
C[C@]1(O)CC[C@@H](Nc2nc3c(cc2OCCOCCO)ncn3-c2ccc(C#N)cn2)CC1 [Compound 12, 6-[6-[2-(2-hydroxyethoxy)ethoxy]-5-[((cis-1,4)-4-hydroxy-4-methylcyclohexyl)amino]imidazo[4,5-b]pyridin-3-yl]pyridine-3-carbonitrile] | > 20 | [22%] | 0.04 | [80%] | > 20 | [36%]
